# Results reported in the supplement of paper PMC11208160.
# Experiment: recombinant barcode read abundance after kanamycin selection (control-corrected) (log10(CPM+1)); higher = more efficient recombination; sequences stand for … in AGTGCAGAGAAAATCGGCCAGTTTTCTCTGCCTGCAGTCCGCATGCCGT…AGATTTATGCAGCGGACTGCCTTTCTCCCAAAGTGATAAACCGGACAGTATCATGGACCGGTTTTCCCGGTAATCCGTATTTGCAAGGTTGGTTTCACT; site = the 11-nt target
# Procedure, shortened: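 Targets were screened in pooled form in E. coli against IS621 bridge RNA target-binding loops. Recombination efficiency is based on barcode counts at recombinant junctions in counts per million, averaged and corrected for the control. Numbers are shown as log10(CPM+1), with duplicate plates on chloramphenicol/ampicillin LB agar (control) or chloramphenicol/ampicillin/kanamycin with 0.1 mM IPTG.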
# 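Note: IS621 recombinase and bridge RNA in Escherichia coli cells.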
row,Sequence,recombinant barcode read abundance (log10)
1,ATACGGACTTGGGTTCTAACCTGTTGCAG (site ATATGTACTCT),0.198
2,ATACGTTCTTGGGTTCTAACCTGTTGCAT (site ATACGTTCTAT),1.12
3,ATACGTTCTTGGGTTCTAACCTGTTGCAT (site CAGGTCCCTCG),0.354
4,ATACTAACTTGGGTTCTAACCTGTTGCCT (site AAACTAACTAG),0.0718
5,ATACTAACTTGGGTTCTAACCTGTTGCCT (site ACACTAACTAG),0.477
6,ATACTAACTTGGGTTCTAACCTGTTGCCT (site AGACTAACTAG),0.0472
7,ATACTAACTTGGGTTCTAACCTGTTGCCT (site ATACTAACTAG),1.7
8,ATAGAGTCTTGGGTTCTAACCTGTTGCTT (site AGAGAGTCTAA),0.352
9,ATAGAGTCTTGGGTTCTAACCTGTTGCTT (site ATAGAGTCTAA),2.52
10,ATAGCAACTTGGGTTCTAACCTGTTGCCT (site ATAGCAACTAG),0.64
11,ATAGCAACTTGGGTTCTAACCTGTTGCCT (site ATAGCCACTAG),0.11
12,ATAGCAACTTGGGTTCTAACCTGTTGCCT (site ATAGCGACTAG),0.0185
13,ATAGCAACTTGGGTTCTAACCTGTTGCCT (site ATAGCTACTAG),0.0705
14,ATAGCTACTTGGGTTCTAACCTGTTGCCT (site ATAGCAACTAG),0.142
15,ATAGCTACTTGGGTTCTAACCTGTTGCCT (site ATAGCCACTAG),0.248
16,ATAGCTACTTGGGTTCTAACCTGTTGCCT (site ATAGCGACTAG),0.0534
17,ATAGCTACTTGGGTTCTAACCTGTTGCCT (site ATAGCTACTAG),1.2
18,ATAGGACCTTGGGTTCTAACCTGTTGCCG (site ATAGGACCTCG),2.36
19,ATAGGACCTTGGGTTCTAACCTGTTGCCG (site ATAGGACCTTG),0.143
20,ATAGGTTCTTGGGTTCTAACCTGTTGCCT (site AAAGGTTCTAG),0.0456
21,ATAGGTTCTTGGGTTCTAACCTGTTGCCT (site ACAGGTTCTAG),0.0769
22,ATAGGTTCTTGGGTTCTAACCTGTTGCCT (site AGAGGTTCTAG),0.0854

row,Sequence,recombinant barcode read abundance (log10)
1,ATAGGTTCTTGGGTTCTAACCTGTTGCCT (site ATAGGTTCTAG),1.49
2,ATATGGACTTGGGTTCTAACCTGTTGCTA (site ATAAGGACTTA),0.65
3,ATATGGACTTGGGTTCTAACCTGTTGCTA (site ATACGGACTTA),1.34
4,ATATGGACTTGGGTTCTAACCTGTTGCTA (site ATAGGGACTTA),0.159
5,ATATGGACTTGGGTTCTAACCTGTTGCTA (site ATATGGACTTA),1.62
6,ATATGGGCTTGGGTTCTAACCTGTTGCCG (site ATATGAGCTCG),0.369
7,ATATGGGCTTGGGTTCTAACCTGTTGCCG (site ATATGCGCTCG),0.0627
8,ATATGGGCTTGGGTTCTAACCTGTTGCCG (site ATATGGGCTCG),1.52
9,ATATGGGCTTGGGTTCTAACCTGTTGCCG (site ATATGTGCTCG),0.1
10,ATATTGCCTTGGGTTCTAACCTGTTGCCT (site ATATTGCCTAG),1.67
11,ATATTGCCTTGGGTTCTAACCTGTTGCCT (site ATATTGTCTTG),0.0732
12,ATATTTCCTTGGGTTCTAACCTGTTGCCT (site AAATTTCCTAG),0.0146
13,ATATTTCCTTGGGTTCTAACCTGTTGCCT (site ACATTTCCTAG),0.0246
14,ATATTTCCTTGGGTTCTAACCTGTTGCCT (site AGATTTCCTAG),0.163
15,ATATTTCCTTGGGTTCTAACCTGTTGCCT (site ATATTTCCTAG),0.785
16,ATCCAGCCTTGGGTTCTAACCTGTTGCCT (site ATCCAACCTAG),1.16
17,ATCCAGCCTTGGGTTCTAACCTGTTGCCT (site ATCCACCCTAG),0.0824
18,ATCCAGCCTTGGGTTCTAACCTGTTGCCT (site ATCCAGCCTAG),1.7
19,ATCCAGCCTTGGGTTCTAACCTGTTGCCT (site ATCCATCCTAG),0.0724
20,ATCCCACCTTGGGTTCTAACCTGTTGCGG (site ATACTACCTCC),0.0321
21,ATCCCACCTTGGGTTCTAACCTGTTGCGG (site ATCCCACCTCC),1.89
22,ATCCTAGCTTGGGTTCTAACCTGTTGCCG (site ATCCTAGCTCG),1.58

row,Sequence,recombinant barcode read abundance (log10)
1,ATCCTAGCTTGGGTTCTAACCTGTTGCCG (site TTCCTAGCTTG),0.299
2,ATCGCTCCTTGGGTTCTAACCTGTTGCCT (site AACGCTCCTAG),0.128
3,ATCGCTCCTTGGGTTCTAACCTGTTGCCT (site ACCGCTCCTAG),0.115
4,ATCGCTCCTTGGGTTCTAACCTGTTGCCT (site AGCGCTCCTAG),0.122
5,ATCGCTCCTTGGGTTCTAACCTGTTGCCT (site ATCGCTCCTAG),2.12
6,ATCGGATCTTGGGTTCTAACCTGTTGCCT (site ATCGGAACTAG),0.195
7,ATCGGATCTTGGGTTCTAACCTGTTGCCT (site ATCGGACCTAG),0.0656
8,ATCGGATCTTGGGTTCTAACCTGTTGCCT (site ATCGGAGCTAG),0.232
9,ATCGGATCTTGGGTTCTAACCTGTTGCCT (site ATCGGATCTAG),0.678
10,ATCGGCCCTTGGGTTCTAACCTGTTGCTG (site ATCGGCCCTCA),2.07
11,ATCGGCCCTTGGGTTCTAACCTGTTGCTG (site GTGGGCCCTCA),0.0497
12,ATCTAAACTTGGGTTCTAACCTGTTGCCT (site ATCTAAACTAG),0.842
13,ATCTAAACTTGGGTTCTAACCTGTTGCCT (site CGAGTCCCTCT),0.105
14,ATCTACTCTTGGGTTCTAACCTGTTGCCT (site ATATACTCTCG),0.382
15,ATCTACTCTTGGGTTCTAACCTGTTGCCT (site ATCTACTCTAG),1.56
16,ATCTATACTTGGGTTCTAACCTGTTGCCT (site ATCTATACTAG),0.821
17,ATCTATACTTGGGTTCTAACCTGTTGCCT (site GGACGAGCTCA),0.0107
18,ATCTATCCTTGGGTTCTAACCTGTTGCAT (site ACCTAACCTAT),0.179
19,ATCTATCCTTGGGTTCTAACCTGTTGCAT (site ATCTATCCTAT),0.198
20,ATCTATTCTTGGGTTCTAACCTGTTGCCT (site ATCGATGCTAG),0.198
21,ATCTATTCTTGGGTTCTAACCTGTTGCCT (site ATCTATTCTAG),0.111
22,ATGAACACTTGGGTTCTAACCTGTTGCTG (site ATGAACACTCA),1.95
